Test results as given in patent US9758561B2 (priority 2014, dated 2017).

Molecular target: T1, human GLP-1 receptor (Homo sapiens, UniProt P43220)
T1 construct: expressed in transfected cells; host or cells: HEK-293
Test: cAMP response of HEK-293 cells stably expressing human GLP-1 receptor (HTRF)
Format: cell-based
Settings: Table 6; read-out: EC50 hGLP-1R
Procedure: For preparation, cells were split into T175 culture flasks and grown overnight to near confluency in medium (DMEM/10% FBS). Medium was then removed and cells washed with PBS lacking calcium and magnesium, followed by proteinase treatment with accutase (Sigma-Aldrich cat. no. A6964). Detached cells were washed and resuspended in assay buffer (1×HBSS; 20 mM HEPES, 0.1% BSA, 2 mM IBMX) and cellular density determined. They were then diluted to 400000 cells/ml and 25 μl-aliquots dispensed into the wells of 96-well plates. For measurement, 25 μl of test compound in assay buffer was added to the wells, followed by incubation for 30 minutes at room temperature. […] Potencies of peptidic compounds at the GLP-1, glucagon and GIP receptors were determined by exposing cells expressing human glucagon receptor (hGlucagon R), human GIP receptor (hGIP-R) or human GLP-1 receptor (hGLP-1R) to the listed compounds at increasing concentrations and measuring the formed cAMP as described in Methods.

T1 sequence (P43220 24-463): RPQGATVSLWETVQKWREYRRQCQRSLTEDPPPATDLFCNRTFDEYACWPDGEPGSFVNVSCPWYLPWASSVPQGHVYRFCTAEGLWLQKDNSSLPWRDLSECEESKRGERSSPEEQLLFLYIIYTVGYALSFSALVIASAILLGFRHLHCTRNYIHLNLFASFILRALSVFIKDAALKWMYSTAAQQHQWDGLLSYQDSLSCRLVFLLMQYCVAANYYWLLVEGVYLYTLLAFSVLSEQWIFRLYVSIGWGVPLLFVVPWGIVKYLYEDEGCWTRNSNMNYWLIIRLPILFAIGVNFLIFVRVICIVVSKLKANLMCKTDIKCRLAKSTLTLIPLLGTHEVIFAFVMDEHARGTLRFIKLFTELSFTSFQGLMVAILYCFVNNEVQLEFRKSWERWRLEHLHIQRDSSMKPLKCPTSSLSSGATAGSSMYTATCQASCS

CCCCCCCCCCCCCCCCCC(=O)N[C@@H](CCC(=O)NCCCC[C@H](NC(=O)[C@H](CCC(N)=O)NC(=O)[C@H](CCCCN)NC(=O)[C@H](CO)NC(=O)[C@H](CC(C)C)NC(=O)[C@H](CC(=O)O)NC(=O)[C@H](CO)NC(=O)[C@@H](NC(=O)[C@H](Cc1ccccc1)NC(=O)[C@@H](NC(=O)CNC(=O)[C@H](Cc1c[nH]cn1)NC(=O)[C@@H](CO)NC(=O)[C@@H](N)Cc1c[nH]cn1)[C@@H](C)O)[C@@H](C)O)C(=O)N[C@@H](CC(=O)O)C(=O)N[C@@H](CCC(=O)O)C(=O)N[C@@H](CCC(=O)O)C(=O)N[C@@H](C)C(=O)N[C@@H](C)C(=O)N[C@@H](CCCNC(=N)N)C(=O)N[C@@H](CC(C)C)C(=O)N[C@@H](Cc1ccccc1)C(=O)N[C@H](C(=O)N[C@@H](CCC(=O)O)C(=O)N[C@@H](Cc1c[nH]c2ccccc12)C(=O)N[C@@H](CC(C)C)C(=O)NC(C)(C)C(=O)N[C@@H](C)C(=O)NCC(=O)NCC(=O)N1CCC[C@H]1C(=O)N[C@@H](CO)C(=O)N[C@@H](CO)C(=O)NCC(=O)N[C@@H](C)C(=O)N1CCC[C@H]1C(=O)N1CCC[C@H]1C(=O)N1CCC[C@H]1C(=O)N[C@@H](CO)C(N)=O)[C@@H](C)CC)C(=O)O [SEQ ID NO: 8, H-dSer-H-G-T-F-T-S-D-L-S-K-Q-K(γE-x70)-D-E-E-A-A-R-L-F-I-E-W-L-Aib-A-G-G-P-S-S-G-A-P-P-P-S-NH2]
EC50: 1.8 pM

CCCCCCCCCCCCCCCC(=O)N[C@@H](CCC(=O)N[C@@H](CCC(=O)NCCCC[C@H](NC(=O)[C@H](CCC(N)=O)NC(=O)[C@H](CCCCN)NC(=O)[C@H](CO)NC(=O)[C@H](CC(C)C)NC(=O)[C@H](CC(=O)O)NC(=O)[C@H](CO)NC(=O)[C@@H](NC(=O)[C@H](Cc1ccccc1)NC(=O)[C@@H](NC(=O)CNC(=O)[C@H](CCC(N)=O)NC(=O)[C@@H](CO)NC(=O)[C@@H](N)Cc1c[nH]cn1)[C@@H](C)O)[C@@H](C)O)C(=O)N[C@@H](CC(=O)O)C(=O)N[C@@H](CCC(=O)O)C(=O)N[C@@H](CCC(=O)O)C(=O)N[C@@H](C)C(=O)N[C@@H](C)C(=O)N[C@@H](CCCNC(=N)N)C(=O)N[C@@H](CC(C)C)C(=O)N[C@@H](Cc1ccccc1)C(=O)N[C@H](C(=O)N[C@@H](CCC(=O)O)C(=O)N[C@@H](Cc1c[nH]c2ccccc12)C(=O)N[C@@H](CC(C)C)C(=O)NC(C)(C)C(=O)N[C@@H](CO)C(=O)NCC(=O)NCC(=O)N1CCC[C@H]1C(=O)N[C@@H](CO)C(=O)N[C@@H](CO)C(=O)NCC(=O)N[C@@H](C)C(=O)N1CCC[C@H]1C(=O)N1CCC[C@H]1C(=O)N1CCC[C@H]1C(=O)N[C@@H](CO)C(N)=O)[C@@H](C)CC)C(=O)O)C(=O)O [SEQ ID NO: 15, H-dSer-Q-G-T-F-T-S-D-L-S-K-Q-K(γE-γE-x53)-D-E-E-A-A-R-L-F-I-E-W-L-Aib-S-G-G-P-S-S-G-A-P-P-P-S-NH2]
EC50: 1.8 pM

CCCCCCCCCCCCCCCC(=O)N[C@@H](CCC(=O)N[C@@H](CCC(=O)NCCCC[C@H](NC(=O)[C@H](CCC(N)=O)NC(=O)[C@H](CCCCN)NC(=O)[C@H](CO)NC(=O)[C@H](CC(C)C)NC(=O)[C@H](CC(=O)O)NC(=O)[C@H](CO)NC(=O)[C@@H](NC(=O)[C@H](Cc1ccccc1)NC(=O)[C@@H](NC(=O)CNC(=O)[C@H](CCC(N)=O)NC(=O)[C@@H](CO)NC(=O)[C@@H](N)Cc1c[nH]cn1)[C@@H](C)O)[C@@H](C)O)C(=O)N[C@@H](CC(=O)O)C(=O)N[C@@H](CCC(=O)O)C(=O)N[C@@H](CCC(=O)O)C(=O)N[C@@H](C)C(=O)N[C@H](C(=O)N[C@@H](CCCNC(=N)N)C(=O)N[C@@H](CC(C)C)C(=O)N[C@@H](Cc1ccccc1)C(=O)N[C@H](C(=O)N[C@@H](CCC(=O)O)C(=O)N[C@@H](Cc1c[nH]c2ccccc12)C(=O)N[C@@H](CC(C)C)C(=O)NC(C)(C)C(=O)N[C@@H](C)C(=O)NCC(=O)NCC(=O)N1CCC[C@H]1C(=O)N[C@@H](CO)C(=O)N[C@@H](CO)C(=O)NCC(=O)N[C@@H](C)C(=O)N1CCC[C@H]1C(=O)N1CCC[C@H]1C(=O)N1CCC[C@H]1C(=O)N[C@@H](CO)C(N)=O)[C@@H](C)CC)C(C)C)C(=O)O)C(=O)O [SEQ ID NO: 17, H-dSer-Q-G-T-F-T-S-D-L-S-K-Q-K(γE-γE-x53)-D-E-E-A-V-R-L-F-I-E-W-L-Aib-A-G-G-P-S-S-G-A-P-P-P-S-NH2]
EC50: 2.4 pM
